Patent US10093699B2, “Peptides with antimicrobial, anticancer and/or wound-healing promoting activities, pharmaceutical compositions containing the same, and use of the peptides with antimicrobial, anticancer and/or wound-healing promoting activities” (priority 2015, dated 2018)
In brackets after ≈: the same amount, converted by molar mass. Where a SMILES comes first, the peptide text is derived from it. [ ]: non-standard residue; d: D form. 2Nal = N[C@@H](Cc1ccc2ccccc2c1)C(=O)O

Key:
Assay type in all cases: cell-based
[1] = system: Escherichia coli strain (ATCC 25922); assay: microbe, parasite or virus in culture; details: ATCC25922, E. coli ATCC 25922, LYM control, read-out: Minimum inhibitory concentration (MIC)
Procedure: (§1) Escherichia coli strain (ATCC 25922), Staphylococcus aureus subsp strain (ATCC 25923, methicillin-resistant), and Pseudomonas aeruginosa Migula strain (ATCC 27853, ampicillin-resistant) were used to test the antibacterial activity of the peptides. Bacteria were cultured in sterilized Mueller-Hinton (MH) culturing medium at 200 rpm and 37° C. for 8 hours.
(§2) After 8 hours culture, concentration of the inoculums were determined by measuring absorbance of optical density at 600 nm (OD 600=1, equal to approximately 10^8 CFU/mL) with UV/Visible spectrophotometer.
(§3) The antibacterial activities were determined by the standard broth microdilution method of National Committee for Clinical Laboratory Standards with the LYM broth. The LYM broth contains 5.4 mM KCl, 5.6 mM Na2HPO4, 0.5 mM MgSO4, and 1.0 mM sodium citrate. In addition, 0.4 mg of ZnCl2, 2.0 mg of FeCl3. 6H2O, 0.1 mg of CuSO4. 5H2O, 0.1 mg of MnSO4.H2O, 0.1 mg of Na2B4O7.10H2O, 700 mg of amino acid mixtures without tryptophan (Clontech), and 20 mg of L-Tryptophan were added per liter of medium. A vitamin mixture (100×, Sigma) and glucose at final concentration of 2% were also added.
(§4) 1 μl peptide solutions (ranging from 5000 μg/ml to 78 μg/ml in serial dilution) was prepared and mixed with 99 μl inoculum (5×10^5 CFU/ml) in polypropylene 96-well plate. The turbidity at OD 600 nm was measured by ELISA plate reader (Thermo Max, Molecular Devices, Sunnyvale, Calif.). The absorbance of culture medium and inoculum suspension without peptides were used as the negative and positive control, respectively. The minimum inhibitory concentration (MIC) value is the lowest concentration of peptide at which there is no obvious growth (equal or more than 90%). […] All peptides were tested in triplicate.

[2] = system: Staphylococcus aureus subsp strain (ATCC 25923, methicillin-resistant); assay: microbe, parasite or virus in culture
Procedure: as §1, §2, §3, §4

human fibroblast (HFW) = assay: MTT cytotoxicity to normal fibroblasts; details: MTT assay
Procedure: Human lung cancer line PC9 and A549, oral squamous cell carcinoma cell line OECM-1 were cultured in RPMI medium supplemented with 10% fetal bovine serum and antibiotic. Human tongue carcinoma cell line SAS, oral cancer cell line C9, and human diploid fibroblast (HFW) were cultured in DMEM medium supplemented with 10% fetal bovine serum and antibiotic. Cells were cultured in a humidified incubator containing 5% CO2 at 37° C.
The MTT assay was employed to determine the in vitro cytotoxicity. All cancer cell lines were seeded in 96-well plate with concentration 5000 cells/100 μl/well and incubated for 24 hours. HFW was seeded with 8000 cells/100 μl/well.
After medium was removed, 100 μl fresh medium containing peptide (ranging from 50 μM to 3.13 μM, HFW was treated with 75 μM and 100 μM peptide additionally) was added to the wells. Following 3, 12 or 24 hour incubation, fresh medium with MTT (0.5 mg/ml) was replaced and incubated for 3 hours. After medium/MTT was removed, DMSO was added at 100 μl for dissolving the formazan crystal. Cell survival rate was calculated by measuring the absorbance at 540 nm using Multi-labeled Microplate Reader (VICTOR3). For cancer cells, medium mixed with H2O2 (aq) represented positive control (all cells died) while medium only represented negative control. For normal cells, medium only represented positive control (all cells lived) while medium mixed with H2O2 (aq) represented negative control (all cells died).
The cytotoxicities of S1 and its analogs on human lung cancer cells (i.e, PC9, PC9-G and A549), human oral cancer cells (i.e, C9, OECM-1, and SAS), and human fibroblast (HFW) were evaluated by MTT assay for 3, 12 and 24 hours.

MIC [1] | MIC ([2]; Staphylococcus aureus, ATCC25923, S. aureus ATCC 25923, LYM control, read-out: Minimum inhibitory concentration (MIC)) | Molecule | degrees of cytotoxicities to HFW (rank order) (human fibroblast (HFW)) | Minimum inhibitory concentration (MIC) ([2]; ATCC 25923, 8 h)
25 µg/mL (≈ 71.5 µM) | 3.1 µg/mL (≈ 8.87 µM) | CC1(C)S[C@@H]2[C@H](NC(=O)[C@H](N)c3ccccc3)C(=O)N2[C@H]1C(=O)O [AP, Ampicillin, reference compound] |  | 
 |  | CC(=O)N[C@@H](CCCCN)C(=O)N[C@@H](CCCCN)C(=O)N[C@@H](CCCCN)C(=O)N[C@@H](CCCCN)C(=O)N[C@@H](CCCCN)C(=O)N[C@@H](CCCCN)C(=O)N[C@@H](Cc1ccc2ccccc2c1)C(=O)N[C@@H](Cc1ccc2ccccc2c1)C(=O)N[C@@H](CCCCN)C(=O)N[C@@H](CCCCN)C(=O)N[C@@H](Cc1c[nH]c2ccccc12)C(=O)N[C@@H](CCCNC(=N)N)C(=O)N[C@@H](CCCCN)C(=O)N[C@@H](Cc1c[nH]c2ccccc12)C(=O)N[C@@H](CC(C)C)C(=O)N[C@@H](C)C(=O)N[C@@H](CCCCN)C(=O)N[C@@H](CCCCN)C(N)=O [K6-Nal2-S1, Ac-KKKKKK-Nal-Nal-KKWRKWLAKK-NH2] (Ac-KKKKKK[2Nal][2Nal]KKWRKWLAKK-NH2) | S1 peptide<K4R2-Nal2-S1 peptide<K6-Nal2-S1 peptide<Nal2-S1 peptide | 
 |  | CC(=O)N[C@@H](Cc1ccc2ccccc2c1)C(=O)N[C@@H](Cc1ccc2ccccc2c1)C(=O)N[C@@H](CCCCN)C(=O)N[C@@H](CCCCN)C(=O)N[C@@H](Cc1c[nH]c2ccccc12)C(=O)N[C@@H](CCCNC(=N)N)C(=O)N[C@@H](CCCCN)C(=O)N[C@@H](Cc1c[nH]c2ccccc12)C(=O)N[C@@H](CC(C)C)C(=O)N[C@@H](C)C(=O)N[C@@H](CCCCN)C(=O)N[C@@H](CCCCN)C(N)=O [Nal2-S1, Ac-Nal-Nal-KKWRKWLAKK-NH2] (Ac-[2Nal][2Nal]KKWRKWLAKK-NH2) | S1 peptide<K4R2-Nal2-S1 peptide<K6-Nal2-S1 peptide<Nal2-S1 peptide | 3.1 µg/mL (≈ 1.72 µM)
 |  | Ac-KKWRKWLAKK-NH2 [S1, Ac-KKWRKWLAKK-NH2, reference compound] | S1 peptide<K4R2-Nal2-S1 peptide<K6-Nal2-S1 peptide<Nal2-S1 peptide | 
